According to ChEMBL document CHEMBL4507291 (2021):

Experiments:
[1] = test system: Mast/stem cell growth factor receptor Kit (Homo sapiens), P10721 [V559D]
[2] = target: Ribosomal protein S6 kinase alpha-4 (Homo sapiens) (UniProt O75676)
[3] = target: Calcium/calmodulin-dependent protein kinase type II subunit alpha (Homo sapiens) (UniProt Q9UQM7)
[4] = target: Serine/threonine-protein kinase PAK 4 (Homo sapiens) (UniProt O96013)
[5] = target: Vascular endothelial growth factor receptor 3 (Homo sapiens) (UniProt P35916)
Sequence of Vascular endothelial growth factor receptor 3 (Homo sapiens) (P35916 whole entry): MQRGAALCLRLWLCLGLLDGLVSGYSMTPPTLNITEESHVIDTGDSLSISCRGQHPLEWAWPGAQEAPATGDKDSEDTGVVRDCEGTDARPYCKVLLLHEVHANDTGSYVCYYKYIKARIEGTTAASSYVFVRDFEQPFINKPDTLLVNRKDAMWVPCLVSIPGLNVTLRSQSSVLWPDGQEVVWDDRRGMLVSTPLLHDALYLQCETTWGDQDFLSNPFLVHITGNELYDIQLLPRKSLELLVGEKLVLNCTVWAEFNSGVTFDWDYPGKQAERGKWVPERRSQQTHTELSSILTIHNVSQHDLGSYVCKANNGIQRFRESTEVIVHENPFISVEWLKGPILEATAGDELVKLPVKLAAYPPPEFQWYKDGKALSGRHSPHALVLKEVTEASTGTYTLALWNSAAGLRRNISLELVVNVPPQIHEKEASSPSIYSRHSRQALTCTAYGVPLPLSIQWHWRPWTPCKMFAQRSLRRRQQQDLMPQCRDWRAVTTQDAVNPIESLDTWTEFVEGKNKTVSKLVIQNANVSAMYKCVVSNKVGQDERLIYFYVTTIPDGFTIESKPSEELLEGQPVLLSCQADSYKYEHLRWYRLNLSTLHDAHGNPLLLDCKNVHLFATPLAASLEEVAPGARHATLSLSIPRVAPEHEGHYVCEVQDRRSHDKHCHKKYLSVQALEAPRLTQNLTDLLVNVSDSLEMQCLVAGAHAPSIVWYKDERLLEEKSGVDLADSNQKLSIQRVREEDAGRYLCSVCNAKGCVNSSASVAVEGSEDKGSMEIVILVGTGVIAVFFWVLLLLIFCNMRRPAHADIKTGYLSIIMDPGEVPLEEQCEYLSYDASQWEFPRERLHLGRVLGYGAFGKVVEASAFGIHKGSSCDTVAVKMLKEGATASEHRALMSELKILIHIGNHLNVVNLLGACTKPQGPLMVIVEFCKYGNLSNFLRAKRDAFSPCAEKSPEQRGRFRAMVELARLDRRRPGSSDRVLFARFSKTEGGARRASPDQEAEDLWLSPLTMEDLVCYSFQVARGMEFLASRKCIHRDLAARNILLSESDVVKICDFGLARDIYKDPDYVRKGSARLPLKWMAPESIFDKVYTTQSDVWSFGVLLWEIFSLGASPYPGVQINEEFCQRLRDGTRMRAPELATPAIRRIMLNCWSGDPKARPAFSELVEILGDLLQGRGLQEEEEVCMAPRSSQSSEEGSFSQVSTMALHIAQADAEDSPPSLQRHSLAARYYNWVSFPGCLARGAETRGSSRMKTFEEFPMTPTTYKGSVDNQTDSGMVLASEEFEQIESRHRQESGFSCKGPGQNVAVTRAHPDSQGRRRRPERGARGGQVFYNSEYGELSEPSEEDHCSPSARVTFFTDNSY

[6] = target: Serine/threonine-protein kinase DCLK3 (Homo sapiens) (UniProt Q9C098)
[7] = target: T1, Serine/threonine-protein kinase 3 (Homo sapiens) (UniProt Q13188)
T1 sequence (whole entry): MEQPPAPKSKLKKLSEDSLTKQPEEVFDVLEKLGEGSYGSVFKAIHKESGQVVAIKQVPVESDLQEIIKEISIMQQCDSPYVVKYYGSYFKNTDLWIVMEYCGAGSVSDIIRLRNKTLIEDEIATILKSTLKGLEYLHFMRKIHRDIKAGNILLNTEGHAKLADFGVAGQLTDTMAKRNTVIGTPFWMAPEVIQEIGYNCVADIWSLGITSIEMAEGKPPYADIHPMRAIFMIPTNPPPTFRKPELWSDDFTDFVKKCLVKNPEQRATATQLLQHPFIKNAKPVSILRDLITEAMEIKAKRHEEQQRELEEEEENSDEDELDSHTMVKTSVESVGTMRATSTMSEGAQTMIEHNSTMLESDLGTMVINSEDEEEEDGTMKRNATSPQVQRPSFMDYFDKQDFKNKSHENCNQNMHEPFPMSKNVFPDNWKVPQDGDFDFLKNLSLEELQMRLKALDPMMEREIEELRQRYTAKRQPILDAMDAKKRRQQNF

[8] = target: Dual specificity tyrosine-phosphorylation-regulated kinase 1A (Homo sapiens) (UniProt Q13627)
[9] = target: Mitogen-activated protein kinase kinase kinase 10 (Homo sapiens) (UniProt Q02779)
[10] = target: Phosphatidylinositol 3-kinase C2 domain-containing subunit gamma (Homo sapiens) (UniProt O75747)
[11] = target: Phosphatidylinositol 3-kinase catalytic subunit type 3 (Homo sapiens) (UniProt Q8NEB9)
[12] = target: Casein kinase I isoform epsilon (Homo sapiens) (UniProt P49674)
[13] = target: Serine/threonine-protein kinase Nek4 (Homo sapiens) (UniProt P51957)
[14] = target: Epidermal growth factor receptor (Homo sapiens) (UniProt P00533)
[15] = target: Receptor-type tyrosine-protein kinase FLT3 (Homo sapiens) (UniProt P36888)
Sequence of Receptor-type tyrosine-protein kinase FLT3 (Homo sapiens) (P36888 whole entry): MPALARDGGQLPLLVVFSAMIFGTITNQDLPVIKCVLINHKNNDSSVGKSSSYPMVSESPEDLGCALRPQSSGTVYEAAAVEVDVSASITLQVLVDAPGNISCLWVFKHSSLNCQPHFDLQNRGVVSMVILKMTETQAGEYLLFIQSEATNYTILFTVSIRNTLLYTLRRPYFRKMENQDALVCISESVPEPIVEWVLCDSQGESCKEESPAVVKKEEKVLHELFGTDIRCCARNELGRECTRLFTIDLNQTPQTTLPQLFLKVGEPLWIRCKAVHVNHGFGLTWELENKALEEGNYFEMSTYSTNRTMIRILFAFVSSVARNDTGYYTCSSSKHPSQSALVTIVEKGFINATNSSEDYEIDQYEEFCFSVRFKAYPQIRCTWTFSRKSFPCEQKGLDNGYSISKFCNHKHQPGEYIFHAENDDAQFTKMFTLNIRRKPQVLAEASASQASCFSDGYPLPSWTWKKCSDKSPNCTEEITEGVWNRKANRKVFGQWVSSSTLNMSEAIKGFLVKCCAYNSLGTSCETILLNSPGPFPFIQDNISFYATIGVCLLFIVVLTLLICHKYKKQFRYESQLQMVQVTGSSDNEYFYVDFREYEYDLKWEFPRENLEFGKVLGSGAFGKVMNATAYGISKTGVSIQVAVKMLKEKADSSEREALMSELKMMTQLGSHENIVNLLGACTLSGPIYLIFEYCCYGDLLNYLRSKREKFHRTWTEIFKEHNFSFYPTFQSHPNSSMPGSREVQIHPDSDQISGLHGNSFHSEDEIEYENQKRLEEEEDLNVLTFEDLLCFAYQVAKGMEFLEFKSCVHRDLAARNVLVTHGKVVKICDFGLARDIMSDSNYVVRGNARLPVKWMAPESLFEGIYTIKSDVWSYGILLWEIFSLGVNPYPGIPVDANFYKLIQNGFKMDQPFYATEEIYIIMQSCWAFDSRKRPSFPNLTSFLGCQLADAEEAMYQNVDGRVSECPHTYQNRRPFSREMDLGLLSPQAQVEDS

[16] = target: Ephrin type-A receptor 6 (Homo sapiens) (UniProt Q9UF33)
[17] = target: Activated CDC42 kinase 1 (Homo sapiens) (UniProt Q07912)
[18] = target: Bone morphogenetic protein receptor type-2 (Homo sapiens) (UniProt Q13873)
[19] = target: T2, Muscarinic acetylcholine receptor M5 (Homo sapiens) (UniProt P08912); details: Compound concentration 10.0 uM
T2 sequence (whole entry): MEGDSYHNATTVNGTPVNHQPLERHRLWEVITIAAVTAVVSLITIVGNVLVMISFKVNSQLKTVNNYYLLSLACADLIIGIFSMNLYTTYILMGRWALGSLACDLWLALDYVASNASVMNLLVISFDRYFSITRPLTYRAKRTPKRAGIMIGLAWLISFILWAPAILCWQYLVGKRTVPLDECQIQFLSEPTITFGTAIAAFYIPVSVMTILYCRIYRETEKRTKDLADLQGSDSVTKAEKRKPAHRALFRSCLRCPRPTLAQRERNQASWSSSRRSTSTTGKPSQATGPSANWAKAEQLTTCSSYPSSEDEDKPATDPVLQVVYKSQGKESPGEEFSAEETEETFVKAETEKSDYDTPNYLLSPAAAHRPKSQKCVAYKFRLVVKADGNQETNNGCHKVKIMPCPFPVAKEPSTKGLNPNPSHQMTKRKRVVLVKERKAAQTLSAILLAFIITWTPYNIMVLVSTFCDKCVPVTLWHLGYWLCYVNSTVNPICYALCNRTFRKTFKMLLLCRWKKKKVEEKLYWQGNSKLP

[20] = target: Non-receptor tyrosine-protein kinase TYK2 (Homo sapiens) (UniProt P29597)
[21] = target: Serine/threonine-protein kinase PLK2 (Homo sapiens) (UniProt Q9NYY3)
Sequence of Serine/threonine-protein kinase PLK2 (Homo sapiens) (Q9NYY3 whole entry, looked up): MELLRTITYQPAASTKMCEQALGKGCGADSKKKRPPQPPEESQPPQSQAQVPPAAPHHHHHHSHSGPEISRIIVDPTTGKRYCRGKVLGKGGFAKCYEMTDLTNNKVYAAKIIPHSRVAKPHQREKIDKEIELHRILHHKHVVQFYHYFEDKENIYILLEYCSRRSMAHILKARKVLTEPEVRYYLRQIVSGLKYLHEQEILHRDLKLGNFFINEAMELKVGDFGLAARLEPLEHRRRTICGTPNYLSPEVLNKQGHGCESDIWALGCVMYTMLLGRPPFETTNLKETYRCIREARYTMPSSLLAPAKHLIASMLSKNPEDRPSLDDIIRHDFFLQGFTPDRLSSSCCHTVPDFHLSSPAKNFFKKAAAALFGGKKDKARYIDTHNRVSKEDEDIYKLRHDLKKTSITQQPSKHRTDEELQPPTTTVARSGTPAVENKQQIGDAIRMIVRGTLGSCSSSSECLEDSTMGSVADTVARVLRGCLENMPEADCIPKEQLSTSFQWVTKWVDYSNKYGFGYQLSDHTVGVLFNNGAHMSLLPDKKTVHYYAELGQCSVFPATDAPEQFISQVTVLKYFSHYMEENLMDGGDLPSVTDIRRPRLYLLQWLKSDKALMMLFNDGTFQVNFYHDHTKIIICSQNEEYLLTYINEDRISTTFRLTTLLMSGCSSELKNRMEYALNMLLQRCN

[22] = target: Sodium-dependent serotonin transporter (Homo sapiens) (UniProt P31645); details: Compound concentration 10.0 uM
[23] = target: Tyrosine-protein kinase Fgr (Homo sapiens) (UniProt P09769)
Sequence of Tyrosine-protein kinase Fgr (Homo sapiens) (P09769 2-529 limits assumed): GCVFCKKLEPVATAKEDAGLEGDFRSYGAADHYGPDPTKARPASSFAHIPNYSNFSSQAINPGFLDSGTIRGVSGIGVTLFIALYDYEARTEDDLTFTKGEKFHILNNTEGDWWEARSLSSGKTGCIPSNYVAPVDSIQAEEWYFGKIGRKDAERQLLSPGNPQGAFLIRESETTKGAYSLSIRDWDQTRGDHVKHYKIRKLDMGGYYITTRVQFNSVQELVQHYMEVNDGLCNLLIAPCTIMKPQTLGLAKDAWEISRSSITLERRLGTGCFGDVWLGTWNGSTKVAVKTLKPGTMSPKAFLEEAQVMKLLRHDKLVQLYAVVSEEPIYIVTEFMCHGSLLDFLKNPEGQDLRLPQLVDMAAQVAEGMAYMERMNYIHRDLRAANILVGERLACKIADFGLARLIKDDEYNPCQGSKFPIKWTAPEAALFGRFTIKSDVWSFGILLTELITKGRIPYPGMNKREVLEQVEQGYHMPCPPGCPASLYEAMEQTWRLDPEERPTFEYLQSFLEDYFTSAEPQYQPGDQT

[24] = target: T3, Serine/threonine-protein kinase 17A (Homo sapiens) (UniProt Q9UEE5)
T3 sequence (whole entry): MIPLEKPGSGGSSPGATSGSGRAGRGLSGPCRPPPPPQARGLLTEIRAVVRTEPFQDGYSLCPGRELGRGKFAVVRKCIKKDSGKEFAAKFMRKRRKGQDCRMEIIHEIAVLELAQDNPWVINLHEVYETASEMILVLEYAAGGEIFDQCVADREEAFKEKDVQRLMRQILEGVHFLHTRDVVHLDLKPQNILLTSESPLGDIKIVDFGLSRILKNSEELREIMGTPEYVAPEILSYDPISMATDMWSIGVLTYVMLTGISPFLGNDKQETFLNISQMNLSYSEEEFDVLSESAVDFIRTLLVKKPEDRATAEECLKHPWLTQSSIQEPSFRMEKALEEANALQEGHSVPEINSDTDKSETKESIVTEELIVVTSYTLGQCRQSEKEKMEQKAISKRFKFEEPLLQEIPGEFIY

[25] = target: Serine/threonine-protein kinase PAK 5 (Homo sapiens) (UniProt Q9P286)
Sequence of Serine/threonine-protein kinase PAK 5 (Homo sapiens) (Q9P286 whole entry, looked up): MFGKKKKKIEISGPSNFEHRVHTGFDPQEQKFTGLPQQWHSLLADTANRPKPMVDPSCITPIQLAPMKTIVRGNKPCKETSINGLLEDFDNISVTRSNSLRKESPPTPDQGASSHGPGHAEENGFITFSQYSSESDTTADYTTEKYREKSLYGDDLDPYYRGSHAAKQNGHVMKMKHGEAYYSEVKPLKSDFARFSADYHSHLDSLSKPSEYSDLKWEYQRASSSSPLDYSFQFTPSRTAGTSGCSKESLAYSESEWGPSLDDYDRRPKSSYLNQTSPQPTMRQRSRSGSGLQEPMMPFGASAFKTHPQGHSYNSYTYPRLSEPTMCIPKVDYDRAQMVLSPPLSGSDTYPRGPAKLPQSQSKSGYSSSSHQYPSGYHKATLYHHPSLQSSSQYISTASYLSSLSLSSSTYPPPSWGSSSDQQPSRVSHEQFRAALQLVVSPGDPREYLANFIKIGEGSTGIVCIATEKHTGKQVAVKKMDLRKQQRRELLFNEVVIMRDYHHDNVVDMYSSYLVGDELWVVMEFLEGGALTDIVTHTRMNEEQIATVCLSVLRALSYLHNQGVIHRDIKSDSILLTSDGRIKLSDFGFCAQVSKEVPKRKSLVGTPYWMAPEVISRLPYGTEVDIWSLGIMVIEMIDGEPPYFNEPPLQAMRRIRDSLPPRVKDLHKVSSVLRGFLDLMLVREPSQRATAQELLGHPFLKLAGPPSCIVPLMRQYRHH

[26] = Compound concentration 1000.0 nM
[27] = Compound concentration 100.0 nM

Sequence of Serine/threonine-protein kinase PAK 4 (Homo sapiens) (O96013 whole entry, looked up): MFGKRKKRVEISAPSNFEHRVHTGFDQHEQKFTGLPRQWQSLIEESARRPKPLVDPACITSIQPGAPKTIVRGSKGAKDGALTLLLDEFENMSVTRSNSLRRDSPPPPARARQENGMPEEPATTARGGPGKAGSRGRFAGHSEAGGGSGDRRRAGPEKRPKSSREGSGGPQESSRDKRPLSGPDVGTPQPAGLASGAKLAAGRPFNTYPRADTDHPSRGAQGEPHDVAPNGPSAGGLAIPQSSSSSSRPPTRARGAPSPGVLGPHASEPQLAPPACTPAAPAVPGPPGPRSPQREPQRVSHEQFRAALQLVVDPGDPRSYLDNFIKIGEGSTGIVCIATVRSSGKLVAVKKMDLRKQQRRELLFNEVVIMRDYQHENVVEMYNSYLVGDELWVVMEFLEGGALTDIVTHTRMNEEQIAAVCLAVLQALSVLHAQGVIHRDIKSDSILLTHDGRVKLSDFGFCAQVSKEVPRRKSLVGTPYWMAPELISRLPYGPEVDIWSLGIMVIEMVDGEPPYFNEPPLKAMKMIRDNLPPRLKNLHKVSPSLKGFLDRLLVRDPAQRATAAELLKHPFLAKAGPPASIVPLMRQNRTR

C[C@@H]1CN(c2cc(-c3nn(C)c4ccc(OC5(C)CC5)cc34)ncn2)C[C@H](C)O1 [MLi-2-NC]
inactive: residual activity [1, 26] 100% | residual activity [2, 26] 81% | residual activity [3, 26] 98% | residual activity [4, 26] 93% | residual activity [5, 26] 85% | residual activity [6, 26] 77% | residual activity [7, 26] 100% | residual activity [8, 26] 81% | residual activity [9, 26] 100% | residual activity [10, 26] 100% | residual activity [11, 26] 86% | residual activity [12, 26] 100% | residual activity [13, 26] 60% | residual activity [14, 26] 97% | residual activity [15, 26] 77% | residual activity [16, 26] 100% | residual activity [17, 26] 96% | residual activity [18, 26] 54% | inhibition [19] 2.87% | residual activity [20, 26] 82% | residual activity [21, 26] 68% | inhibition [22] -3.49% | residual activity [23, 26] 90% | residual activity [24, 26] 81% | residual activity [25, 26] 84%

C[C@@H]1CN(c2cc(-c3n[nH]c4ccc(OC5(C)CC5)cc34)ncn2)C[C@H](C)O1 [MLi-2]
inactive: residual activity [1, 27] 100% | residual activity [2, 27] 75% | residual activity [3, 27] 100% | residual activity [4, 27] 97% | residual activity [5, 27] 100% | residual activity [6, 27] 92% | residual activity [7, 27] 78% | residual activity [8, 27] 95% | residual activity [9, 27] 100% | residual activity [10, 27] 69% | residual activity [11, 27] 100% | residual activity [12, 27] 100% | residual activity [13, 27] 84% | residual activity [14, 27] 76% | residual activity [15, 27] 87% | residual activity [16, 27] 90% | residual activity [17, 27] 79% | residual activity [18, 27] 75% | inhibition [19] 1% | residual activity [20, 27] 76% | residual activity [21, 27] 76% | inhibition [22] -2.29% | residual activity [23, 27] 89% | residual activity [24, 27] 100% | residual activity [25, 27] 86%
